This passage reports IC50 results from patent US9994587B2, “HIV protease inhibitors” (priority 2014, dated 2018).

The assay concerns the target T1, wildtype HIV-1 protease (Human immunodeficiency virus type 1 group M subtype B, UniProt P04585).
T1 construct: preincubated with the HIV-1 protease (wild type) enzyme in assay buffer; made in house; host or cells: Escherichia coli
Description: Assay for inhibition of microbial expressed HIV protease (Pepcleav). The conditions noted are these: wild type HIV-1 protease 20 pM, peptide substrate 400 micromolar, pH 5.5; mean of at least two independent experiments. The assay is classed as biochemical. As to the method:
Assay for Inhibition of Microbial Expressed HIV Protease (“Pepcleav”)
Studies of the inhibition of the wildtype HIV-1 protease (which was expressed in Escherichia coli) were carried out with a peptide substrate [Val-Ser-Gln-Asn-(βnaphtyl)Ala-Pro-Ile-Val (SEQ ID NO 1)]. The inhibitor was first preincubated with the HIV-1 protease (wild type) enzyme in assay buffer (50 mM sodium acetate, pH 5.5, 100 mM NaCl, and 0.1% BSA) for 30 minutes at room temperature. Substrate was added to 400 micromolar in a total volume of 20 microliters containing 20 picomolar HIV-1 protease (final) and the reaction is incubated for 1 hour at 30° C. The reaction was quenched with the addition of formic acid and indinavir to 0.012% and 150 nM final concentrations, respectively. Product formation was determined after separation of product and substrate on a Zorbax Eclipse XDB-C18 column connected to an API 4000 mass spectrometer (Applied Biosystems) with multiple reaction monitoring (transitions were 644.5/428.9 and 615.4/422.2 (M1/M3) for product and indinavir respectively). The extent of inhibition of the reaction was determined from the peak area of the products.
As for `N[C@H](C(=O)Nc1cncc(F)c1CC[C@@H]1CNC[C@@H](CSc2ccc(Cl)cc2)O1)C(c1ccc(F)cc1)c1ccc(F)cc1` [Example 104, (S)-2-amino-N-(4-(2-((2R,6S)-6-(((4-chlorophenyl)thio)methyl)morpholin-2-yl)ethyl)-5-fluoropyridin-3-yl)-3,3-bis(4-fluorophenyl)propanamide], the IC50 – broadly, the point on the concentration scale where inhibition reaches its midpoint – turned out to be 0.28 nM. In the case of `COC(=O)N[C@H](C(=O)Nc1ccccc1CC[C@H]1CNC[C@@H](CS(=O)(=O)c2ccc(Cl)cc2)O1)C(c1ccccc1)c1ccccc1` [Example 109, N-(2-{2-[(2S,6S)-6-{[(4-chlorophenyl)sulfonyl]methyl}morpholin-2-yl]ethyl}phenyl)-Nα-(methoxycarbonyl)-β-phenyl-L-phenylalaninamide] it was 770 nM; in that of `COC(=O)N[C@H](C(=O)Nc1ccccc1CC[C@@H]1CNC[C@@H](CSc2ccc(Br)cc2)O1)C(c1ccccc1)c1ccccc1` [Example 8, methyl N-[(1S)-1-benzhydryl-2-[[2-[2-[(2R,6S)-6-[(4-bromophenyl)sulfanylmethyl]morpholin-2-yl]ethyl]phenyl]amino]-2-oxo-ethyl]carbamate], 2.1 nM. Take `N[C@H](C(=O)Nc1cncc(F)c1CC[C@@H]1CNC[C@@H](COC(=O)NCc2ccc(F)cc2)O1)C(c1ccc(F)cc1)c1ccc(F)cc1` [Example 125, 4-fluoro-N-(5-fluoro-4-{2-[(2R,6S)-6-({[(4-fluorobenzyl)carbamoyl]oxy}methyl)morpholin-2-yl]ethyl}pyridin-3-yl)-β-(4-fluorophenyl)-L-phenylalaninamide]: the half-inhibitory concentration (IC50) turned out to be 15 nM.

For `COC(=O)N[C@H](C(=O)Nc1ccccc1CC[C@@H]1CNC[C@@H](C[S+]([O-])c2ccc(Cl)cc2)O1)C(c1ccccc1)c1ccccc1` (stereo partly drawn) [Example 57, methyl N-[(1S)-1-benzhydryl-2-[[2-[2-[(2R,6S)-6-[(4-chlorophenyl)sulfinylmethyl]morpholin-2-yl]ethyl]phenyl]amino]-2-oxo-ethyl]carbamate], the IC50 was 280 nM. In the case of `COC(=O)N[C@H](C(=O)Nc1ccccc1CC[C@@H]1CNC[C@@H](CSc2cccc(C#N)c2)O1)C(c1ccccc1)c1ccccc1` [Example 24, methyl N-[(1S)-1-benzhydryl-2-[[2-[2-[(2R,6S)-6-[(3-cyanophenyl)sulfanylmethyl]morpholin-2-yl]ethyl]phenyl]amino]-2-oxo-ethyl]carbamate], the IC50 turned out to be 2.1 nM.

On to `COC(=O)N[C@H](C(=O)Nc1ccccc1CC[C@@H]1CNC[C@@H](COc2cccc3c2CCC3)O1)C(c1ccccc1)c1ccccc1` [Example 31, methyl N-[(1S)-1-benzhydryl-2-[[2-[2-[(2R,6S)-6-(indan-4-yloxymethyl)morpholin-2-yl]ethyl]phenyl]amino]-2-oxo-ethyl]carbamate], for which the IC50 turned out to be 36 nM.

With `COC(=O)N[C@H](C(=O)Nc1ccccc1CC[C@@H]1CNC[C@@H](C(F)(F)Cc2ccc(Br)cc2)O1)C(c1ccccc1)c1ccccc1` [Example 65, N-[2-(2-{(2R,6S)-6-[2-(4-bromophenyl)-1,1-difluoroethyl]morpholin-2-yl}ethyl)phenyl]-Nα-(methoxycarbonyl)-β-phenyl-L-phenylalaninamide], the IC50 is 50 nM. Turning to `COC(=O)N[C@H](C(=O)Nc1ccccc1CC[C@@H]1CNC[C@@H](CSc2ncccc2Cl)O1)C(c1ccccc1)c1ccccc1` [Example 54, N-(2-{2-[(2R,6S)-6-{[(3-chloropyridin-2-yl)sulfanyl]methyl}morpholin-2-yl]ethyl}phenyl)-Nα-(methoxycarbonyl)-β-phenyl-L-phenylalaninamide], the IC50 turned out to be 0.93 nM. In the case of `COC(=O)N[C@H](C(=O)Nc1ccccc1CC[C@@H]1CNC[C@@H](COc2cccc3cn[nH]c23)O1)C(c1ccccc1)c1ccccc1` [Example 41, N-[2-(2-{(2R,6S)-6-[(1H-indazol-7-yloxy)methyl]morpholin-2-yl}ethyl)phenyl]-Na-(methoxycarbonyl)-b-phenyl-L-phenylalaninamide] it was 26 nM; in that of `COC(=O)N[C@H](C(=O)Nc1ccccc1CCC1CNC[C@@H](COc2ccc(Cl)cc2)O1)C(c1ccccc1)c1ccccc1` (stereo partly drawn) [Example 5, methyl N-[(1S)-1-benzhydryl-2-[[2-[2-[(6S)-6-[(4-chlorophenoxy)methyl]morpholin-2-yl]ethyl]phenyl]amino]-2-oxo-ethyl]carbamate], 58 nM. In the case of `COC(=O)N[C@H](C(=O)Nc1ccccc1CC[C@@H]1CNC[C@@H](CSc2ccc(S(C)(=O)=O)cc2)O1)C(c1ccccc1)c1ccccc1` [Example 21, methyl N-[(1S)-1-benzhydryl-2-[[2-[2-[(2R,6S)-6-[(4-methylsulfonylphenyl)sulfanyl-methyl]morpholin-2-yl]ethyl]phenyl]amino]-2-oxo-ethyl]carbamate] it was 0.86 nM; in that of `NC(=O)OC[C@@H]1CNC[C@@H](CCc2c(F)cncc2NC(=O)[C@@H](N)C(c2ccc(F)cc2)c2ccc(F)cc2)O1` [Example 124, N-[4-(2-{(2R,6S)-6-[(carbamoyloxy)methyl]morpholin-2-yl}ethyl)-5-fluoropyridin-3-yl]-4-fluoro-β-(4-fluorophenyl)-L-phenylalaninamide], 120 nM. In the case of `COC(=O)N[C@H](C(=O)Nc1ccccc1CC[C@@H]1CNC[C@@H](CSc2ncnc3c2cnn3C)O1)C(c1ccccc1)c1ccccc1` [Example 36, methyl N-[(1S)-1-benzhydryl-2-[[2-[2-[(2R,6S)-6-[(1-methylpyrazolo[3,4-d]pyrimidin-4-yl)sulfanylmethyl]morpholin-2-yl]ethyl]phenyl]amino]-2-oxo-ethyl]carbamate], half-maximal inhibition (IC50) was put at 0.93 nM. Under `COC(=O)N[C@H](C(=O)Nc1cccnc1CC[C@@H]1CNC[C@@H](COc2cccc(C#N)c2)O1)C(c1ccccc1)c1ccccc1` [Example 113, N-[2-(2-{(2R,6S)-6-[(3-cyanophenoxy)methyl]morpholin-2-yl}ethyl)pyridin-3-yl]-Nα-(methoxycarbonyl)-β-phenyl-L-phenylalaninamide] stands 510 nM.

In the case of `COC(=O)N[C@H](C(=O)Nc1ccccc1CC[C@@H]1CNC[C@@H](CSc2cccc(Cl)c2)O1)C(c1ccccc1)c1ccccc1` [Example 18, methyl N-[(1S)-1-benzhydryl-2-[[2-[2-[(2R,6S)-6-[(3-chlorophenyl)sulfanylmethyl]morpholin-2-yl]ethyl]phenyl]amino]-2-oxo-ethyl]carbamate], half-maximal inhibition (IC50) was put at 1.9 nM. The compound `COC(=O)N[C@H](C(=O)Nc1ccccc1CC[C@@H]1CNC[C@@H](CSc2cccc(S(C)(=O)=O)c2)O1)C(c1ccccc1)c1ccccc1` [Example 23, methyl N-[(1S)-1-benzhydryl-2-[[2-[2-[(2R,6S)-6-[(3-methylsulfonylphenyl)sulfanyl-methyl]morpholin-2-yl]ethyl]phenyl]amino]-2-oxo-ethyl]carbamate] gave an IC50 of 0.8 nM. In the case of `COC(=O)N[C@H](C(=O)Nc1ccccc1CC[C@@H]1CNC[C@@H](COc2ccc(-n3ccnc3)cc2)O1)C(c1ccccc1)c1ccccc1` [Example 108, N-(2-{2-[(2R,6S)-6-{[4-(1H-imidazol-1-yl)phenoxy]methyl}morpholin-2-yl]ethyl}phenyl)-Nα-(methoxycarbonyl)-β-phenyl-L-phenylalaninamide] it was 37 nM. Take `COC(=O)N[C@H](C(=O)Nc1cnccc1CC[C@@H]1CNC[C@@H](COc2ccc(C#N)cc2)O1)C(c1ccccc1)c1ccccc1` [Example 81, N-[4-(2-{(2R,6S)-6-[(4-cyanophenoxy)methyl]morpholin-2-yl}ethyl)pyridin-3-yl]-Nα-(methoxycarbonyl)-β-phenyl-L-phenylalaninamide]: the IC50 was determined as 53 nM. In the case of `COC(=O)N[C@H](C(=O)Nc1ncccc1CC[C@@H]1CNC[C@@H](COc2ccc(C#N)cc2)O1)C(c1ccccc1)c1ccccc1` [Example 85, N-[3-(2-{(2R,6S)-6-[(4-cyanophenoxy)methyl]morpholin-2-yl}ethyl)pyridin-2-yl]-Nα-(methoxycarbonyl)-β-phenyl-L-phenylalaninamide] it was 88 nM.

Compound `COC(=O)N[C@H](C(=O)Nc1ccccc1CC[C@@H]1CNC[C@@H](COc2ccc(-n3cccn3)cc2)O1)C(c1ccccc1)c1ccccc1` [Example 43, N-α-(methoxycarbonyl)-β-phenyl-N-(2-{2-[(2R,6S)-6-{[4-(1H-pyrazol-1-yl)phenoxy]methyl}morpholin-2-yl]ethyl}phenyl)-L-phenylalaninamide] returned an IC50 of 4.7 nM. In the case of `COC(=O)N[C@H](C(=O)Nc1ccccc1CC[C@@H]1CNC[C@@H](CS(=O)(=O)c2ccc(Cl)cc2)O1)C(c1ccccc1)c1ccccc1` [Example 56, methyl N-[(1S)-1-benzhydryl-2-[[2-[2-[(2R,6S)-6-[(4-chlorophenyl)sulfonylmethyl]morpholin-2-yl]ethyl]phenyl]amino]-2-oxo-ethyl]carbamate] it was 110 nM.

In the case of `COC(=O)N[C@H](C(=O)Nc1ccccc1CCC1CNC[C@@H](CS(=O)(=O)c2ccc3ccccc3c2)O1)C(c1ccccc1)c1ccccc1` (stereo partly drawn) [Example 4, methyl N-[(1S)-1-benzhydryl-2-[[2-[2-[(6S)-6-(2-naphthylsulfonylmethyl)morpholin-2-yl]ethyl]phenyl]amino]-2-oxo-ethyl]carbamate], half-maximal inhibition (IC50) required 62 nM.
